The values below come from patent US20260317312A1, “ISOXAZOLIDINES AS RIPK1 INHIBITORS AND USE THEREOF” (GENZYME CORPORATION, priority 2023, published 2026).

Each structure is given as a SMILES string.

The target of assay [1] is T1, hRIPK1 (aa 1-375) fusion protein (Homo sapiens, UniProt Q13546).
T1 construct: hRIPK1 (aa 1-375) fusion protein
T1 sequence (Q13546 1-375): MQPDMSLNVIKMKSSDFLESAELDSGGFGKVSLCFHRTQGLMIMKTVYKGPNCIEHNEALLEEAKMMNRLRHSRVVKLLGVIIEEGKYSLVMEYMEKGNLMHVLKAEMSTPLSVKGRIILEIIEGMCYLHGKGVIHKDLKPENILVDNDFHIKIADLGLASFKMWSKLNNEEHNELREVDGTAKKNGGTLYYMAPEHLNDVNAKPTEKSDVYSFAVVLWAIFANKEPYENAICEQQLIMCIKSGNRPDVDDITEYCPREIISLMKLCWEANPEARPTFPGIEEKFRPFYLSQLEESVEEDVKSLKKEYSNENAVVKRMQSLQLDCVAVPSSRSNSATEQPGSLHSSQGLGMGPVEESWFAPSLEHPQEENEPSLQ
Description: Receptor-Interacting Protein Kinase 1 inhibition, ADP Glo assay (conversion of ATP to ADP due to autophosphorylation). The settings on record: ATP 50 μM, 30 min preincubation, 240 min incubation, room temperature, DMSO 1%. It counts as biochemical. The protocol:
The catalytic activity of RIPK1 was measured by monitoring the conversion of Adenosine triphosphate (ATP) to Adenosine diphosphate (ADP) due to autophosphorylation using an ADP-Glo kinase kit (Promega, catalog no. V9104).
In detail, 2 μl recombinantly produced hRIPK1 (aa 1-375) fusion protein (end concentration 3.6 μg/ml) and 2 μl compound (end concentration 33300-1.69 nM; DMSO end concentration 1%) were incubated for 30 minutes at room temperature and then 2 μl ATP (ADP Glo kit, end concentration 50 μM) were added. After another 240 minutes incubation at room temperature, 5 μl Promega ADP-Glo reagent I was added to quench the reaction and deplete unconsumed ATP. After an incubation period of 30 minutes, 10 μl Promega ADP-Glo detection reagent II was added resulting in conversion of ADP to ATP, which generates a light-reaction between luciferase and luciferin. Luminescence was quantified after 30 minutes with a Pherastar FS (BMG LABTECH, Ortenberg).
The adjustment was obtained by nonlinear regression using the Levenberg Marquardt algorithm.
Background: ADP-Glo turns the ADP formed in a reaction into a luminescent signal.

The test system of the next assay is U937 cells. Description: Cellular assay in U937 cells to measure activity of RIPK1-inhibitors on cell death (necroptosis). It is filed as cell-based. The settings on record: overnight (18 to 24 hrs), 37° C., MTS readout. The text has this:
Upon TNF-Receptor I ligation, Ser/Thr kinase RIPK1 is recruited to a transient receptor complex I. Upon modification of RIPK1 which promotes activation of RIPK1, complex lib can form, that involves recruitment of RIPK3 and MLKL (mixed lineage-kinase domain-like protein) which then translocates from the cytosol to the plasma membrane to execute cell death (Cai, Z. et al, Nat. Cell Biol. (2014)16:55-65).
Cell death was quantified in 96 well plates by determination of the amount of live cell using a CellTiter 96 Aqueous reagent (Promega), a calorimetric method to measure the number of live cells by reducing tetrazolium compound [3-(4,5-dimethylthiazol-2-yl)-5-(3-carboxymethoxyphenyl)-2-(4-sulfophenyl)-2H-tetrazolium, inner salt; MTS] into formazan. Absorbance of formazan was read at 490 nm. The inhibitory activity of the test compound was quantified in a concentration response curve (CRC) experiment.
Compounds were obtained as 10 mM stock solutions and were diluted 1 to 10 volumes with DMSO to yield a 1 mM solution. From this solution 2 μl were diluted with 998 μl growth medium. 100 μl of 2 μM compound solution was further diluted sequentially with a dilution factor of 2.5 by adding 150 μl growth medium. A total of 10 concentrations were tested ranging from 10 μM to 0.26 nM or from 1 μM to 0.07 nM.
U937 cells were cultured in RPM11640 Glutamax and 10% heat inactivated FBS. 50 μl cell suspension containing 1×10^6 cells/ml supplemented with 50 μM zVAD.fmk (Benzyloxycarbonyl-Val-Ala-Asp (Ome) fluoromethylketone) and 100 ng/ml recombinant human TNFα were dispensed in each well of a 96-well plate. 50 μl of compound dilutions (described in Cellular assay in U937 cells) were added and the cell suspension incubated overnight (18 to 24 hrs) at 37° C., 5% CO2 in a humidified atmosphere (95% rH). High (no compound) and low control (no TNFα, zVAD.fmk) were tested with 7 replicates; all compound concentrations were tested in duplicates on each experimental plate.
CellTiter 96 Aqueous reagent was mixed (100 μl PMS (phenazine methosulfate) solution/2 ml MTS (3-(4,5-[…])-5-(3-carboxymethoxyphenyl)-2-(4-sulfophenyl)-2H-tetrazolium, inner salt) solution) and 20 μl were added per well. After 4 hrs incubation at 37° C. (5% CO2 95% rH) optical density was measured at 490 nm on a microplate reader (Tecan Infinite M1000).
The % inhibition is expressed as percentage of the maximal inhibition value obtained in the absence of TNFα/zVAD.fmc.

Setting [2] is: Homo sapiens, U-937, TNFα/zVAD.fmk induced cell death (necroptosis).

As for `CCOC(=O)c1ncnc(N[C@H]2C[C@@](C)(C(=O)N3OCC[C@H]3c3cc(F)cc(F)c3)C2)c1F` [Compound 8, ethyl cis-6-((3-((S)-3-(3,5-difluorophenyl)isoxazolidine-2-carbonyl)-3-methylcyclobutyl)amino)-5-fluoropyrimidine-4-carboxylate], the IC50 (in general, the concentration at which inhibition is half-maximal) in assay [1] amounted to 0.025 µM; in the assay with U937 cells (setting [2]), 0.196 µM.
On the same counts, the results for `CCOC(=O)c1ncnc(Cl)c1N[C@H]1C[C@@](C)(C(=O)N2OCC[C@H]2c2cc(F)cc(F)c2)C1` [Compound 9, ethyl cis-6-chloro-5-((3-((S)-3-(3,5-difluorophenyl)isoxazolidine-2-carbonyl)-3-methylcyclobutyl)amino)pyrimidine-4-carboxylate] are 0.366 µM and 0.757 µM.
For `C[C@]1(C(=O)N2OCC[C@H]2c2cc(F)cc(F)c2)C[C@@H](Nc2c(Cl)ncnc2C(N)=O)C1` [Compound 10, cis-6-chloro-5-((3-((S)-3-(3,5-difluorophenyl)isoxazolidine-2-carbonyl)-3-methylcyclobutyl)amino)pyrimidine-4-carboxamide] the same measures were 0.062 µM and 0.364 µM.
For `C[C@]1(C(=O)N2OCC[C@H]2c2cc(F)cc(F)c2)C[C@@H](Nc2ncnc(C(N)=O)c2F)C1` [Compound 11, cis-6-((3-((S)-3-(3,5-difluorophenyl)isoxazolidine-2-carbonyl)-3-methylcyclobutyl)amino)-5-fluoropyrimidine-4-carboxamide] the same measures were 0.062 µM and 0.44 µM.
Consider `NC(=O)c1ccnc(N[C@H]2CC[C@@H](C(=O)N3OCC[C@H]3c3ccc(Cl)cc3)CC2)n1` [Compound 12, cis-2-((4-((S)-3-(4-chlorophenyl)isoxazolidine-2-carbonyl)cyclohexyl)amino)pyrimidine-4-carboxamide], for which the IC50 is 0.035 µM in assay [1] and 0.56 µM with U937 cells (setting [2]).
Consider `NC(=O)c1cc(N[C@H]2CC[C@@H](C(=O)N3OCC[C@H]3c3ccc(Cl)cc3)CC2)ncn1` [Compound 13, cis-6-((4-((S)-3-(4-chlorophenyl)isoxazolidine-2-carbonyl)cyclohexyl)amino)pyrimidine-4-carboxamide], for which the results for the IC50 (in assay [1]; with U937 cells (setting [2])) were 0.114 µM and 0.462 µM, respectively.
On to `N#Cc1ccnc(NC[C@H]2CC[C@H](C(=O)N3OCC[C@H]3c3ccc(Cl)cc3)CC2)n1` [Compound 14, trans-2-(((4-((S)-3-(4-chlorophenyl)isoxazolidine-2-carbonyl)cyclohexyl)methyl)amino)pyrimidine-4-carbonitrile], for which the IC50 was found to be 0.033 µM in assay [1] and 0.503 µM in the assay on U937 cells (setting [2]).
For `N#Cc1cc(NC[C@H]2CC[C@H](C(=O)N3OCC[C@H]3c3ccc(Cl)cc3)CC2)ncn1` [Compound 15, trans-6-(((4-((S)-3-(4-chlorophenyl)isoxazolidine-2-carbonyl)cyclohexyl)methyl)amino)pyrimidine-4-carbonitrile] the same measures were 0.009 µM and 0.192 µM.
On to `N#Cc1ccnc(N[C@H]2C[C@@H](C(=O)N3OCC[C@H]3c3cccc(F)c3)C2)n1` [Compound 16, cis-2-((3-((S)-3-(3-fluorophenyl)isoxazolidine-2-carbonyl)cyclobutyl)amino)pyrimidine-4-carbonitrile], for which the IC50 in assay [1] turned out to be 0.024 µM; with U937 cells (setting [2]) it was 0.123 µM.
With `N#Cc1cc(N[C@H]2C[C@@H](C(=O)N3OCC[C@H]3c3cccc(F)c3)C2)ncn1` [Compound 17, cis-6-((3-((S)-3-(3-fluorophenyl)isoxazolidine-2-carbonyl)cyclobutyl)amino)pyrimidine-4-carbonitrile], the IC50 amounted to 0.056 µM in assay [1] and 0.194 µM in the assay with U937 cells (setting [2]).
On to `N#Cc1cc(N[C@H]2C[C@@H](C(=O)N3OCC[C@H]3c3cc(F)cc(F)c3)C2)ncn1` [Compound 18, cis-6-((3-((S)-3-(3,5-difluorophenyl)isoxazolidine-2-carbonyl)cyclobutyl)amino)pyrimidine-4-carbonitrile], for which the IC50 was determined as 0.041 µM in assay [1] and 0.162 µM in the assay on U937 cells (setting [2]).
For `N#Cc1cc(F)cc([C@@H]2CCON2C(=O)[C@H]2C[C@@H](Nc3nccc(C#N)n3)C2)c1` [Compound 19, cis-2-((3-((S)-3-(3-cyano-5-fluorophenyl)isoxazolidine-2-carbonyl)cyclobutyl)amino)pyrimidine-4-carbonitrile] the same measures were 0.066 µM and 0.757 µM.
With `N#Cc1cc(F)cc([C@@H]2CCON2C(=O)[C@H]2C[C@@H](Nc3cc(C#N)ncn3)C2)c1` [Compound 20, cis-6-((3-((S)-3-(3-cyano-5-fluorophenyl)isoxazolidine-2-carbonyl)cyclobutyl)amino)pyrimidine-4-carbonitrile], the IC50 in assay [1] was 0.069 µM; with U937 cells (setting [2]), 0.809 µM.
For `N#Cc1ccnc(N[C@H]2C[C@@H](C(=O)N3OCC[C@H]3c3ccc(F)c(F)c3)C2)n1` [Compound 21, cis-2-((3-((S)-3-(3,4-difluorophenyl)isoxazolidine-2-carbonyl)cyclobutyl)amino)pyrimidine-4-carbonitrile] the same measures were 0.029 µM and 0.212 µM.
On the same counts, the results for `N#Cc1cc(N[C@H]2C[C@@H](C(=O)N3OCC[C@H]3c3ccc(F)c(F)c3)C2)ncn1` [Compound 22, cis-6-((3-((S)-3-(3,4-difluorophenyl)isoxazolidine-2-carbonyl)cyclobutyl)amino)pyrimidine-4-carbonitrile] are 0.04 µM and 0.313 µM.
For `N#Cc1cc(N[C@H]2C[C@@H](C(=O)N3OCC[C@H]3c3ccc(Cl)cc3)C2)ncn1` [Compound 23, cis-6-((3-((S)-3-(4-chlorophenyl)isoxazolidine-2-carbonyl)cyclobutyl)amino)pyrimidine-4-carbonitrile] the same measures were 0.044 µM and 0.234 µM.
On to `N#Cc1ccnc(N[C@H]2C[C@@H](C(=O)N3OCC[C@H]3c3ccc(Cl)cc3)C2)n1` [Compound 24, cis-2-((3-((S)-3-(4-chlorophenyl)isoxazolidine-2-carbonyl)cyclobutyl)amino)pyrimidine-4-carbonitrile], for which the IC50 came out at 0.013 µM in assay [1] and 0.264 µM in the assay on U937 cells (TNFα/zVAD.fmk induced cell death (necroptosis)).
Consider `N#Cc1cc(F)cc(N[C@H]2C[C@@H](C(=O)N3OCC[C@H]3c3ccc(Cl)cc3)C2)c1` [Compound 25, cis-3-((3-((S)-3-(4-chlorophenyl)isoxazolidine-2-carbonyl)cyclobutyl)amino)-5-fluorobenzonitrile], for which the 50% inhibitory concentration (IC50) in assay [1] was determined as 0.064 µM; in the assay on U937 cells (setting [2]) it was 0.42 µM.
For the compound `N#Cc1cc(F)cc(N[C@H]2C[C@@H](C(=O)N3OCC[C@H]3c3cccc(F)c3)C2)c1` [Compound 26, cis-3-fluoro-5-((3-((S)-3-(3-fluorophenyl)isoxazolidine-2-carbonyl)cyclobutyl)amino)benzonitrile], the IC50 was determined as 0.052 µM in assay [1] and 0.152 µM with U937 cells (setting [2]).
